Laboratory results taken from PubChem BioAssay (NCI).
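Test compounds were applied to cells in 96-well plates for 48 hours at 5 doses. At the TGI there is no net growth.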

Experiments:
Experiment in all cases: NCI tumour cell line growth inhibition, 48 h
CCRF-CEM leukemia = tested on: CCRF-CEM leukemia
M14 melanoma = tested on: M14 melanoma
NCI-H522 lung = tested on: NCI-H522 lung
OVCAR-8 ovarian = tested on: OVCAR-8 ovarian
PC-3 prostate = tested on: PC-3 prostate
SF-295 CNS = tested on: SF-295 CNS
SF-539 CNS = tested on: SF-539 CNS
SNB-19 CNS = tested on: SNB-19 CNS
SR leukemia = tested on: SR leukemia
U251 CNS = tested on: U251 CNS

Row | SMILES | TGI (CCRF-CEM leukemia) | TGI (M14 melanoma) | TGI (NCI-H522 lung) | TGI (OVCAR-8 ovarian) | TGI (PC-3 prostate) | TGI (SF-295 CNS) | TGI (SF-539 CNS) | TGI (SNB-19 CNS) | TGI (SR leukemia) | TGI (U251 CNS)
1 | CCOC(=O)c1cccc(NC(=O)CCl)c1 | 10.6 µM | 24.9 µM | 3.49 µM | > 30.1 µM | 18.1 µM | 26.1 µM | 5.78 µM | > 92.8 µM | 7.46 µM | 2.95 µM
2 | COC(=O)c1c2c(cc3c1CC1(Cc4ccccc4C1=O)C3)CCC2 (configuration not stated) | > 100 µM | > 100 µM | > 100 µM | > 100 µM | > 100 µM | > 100 µM | > 100 µM | > 100 µM | 58.5 µM | > 100 µM
3 | COc1cc(/C=C/C(=O)OCC23CC[C@@]4(C(=O)O)CCC(C)[C@H](C)C4C2=CCC2[C@@]4(C)CC[C@H](O)C(C)(C)C4CC[C@]23C)ccc1O (some centres not stated) | 22.3 µM | 49.5 µM | 31.2 µM | 35.7 µM | 41.5 µM | 73.9 µM | 31.4 µM | > 100 µM | 61.3 µM | 76.1 µM
4 | C1=C\SS/C=C\SS/C=C\SS/C=C\SS/1 | 61.9 µM | > 100 µM | 84.4 µM | > 100 µM | > 100 µM | > 100 µM | – | > 100 µM | > 100 µM | > 100 µM
5 | O=C(Cn1c(=O)oc2ccc(C(=O)c3ccc(F)cc3)cc21)c1ccc([N+](=O)[O-])cc1 | > 100 µM | > 100 µM | 80.4 µM | > 100 µM | 85.9 µM | – | > 100 µM | > 100 µM | > 100 µM | > 100 µM
6 | CC[n+]1cnc(N)c2c(-c3ccc(Cl)cc3)cn(-c3ccc(C)cc3)c21 | 22.7 µM | 4.14 µM | 31.2 µM | 32.7 µM | 25 µM | 25.3 µM | 28.5 µM | 28.8 µM | 19.1 µM | 24.3 µM
7 | CC1=NN(c2nc(N)nc(-c3ccccc3S(N)(=O)=O)n2)C(C)(C)C1 | > 100 µM | 87.2 µM | > 100 µM | > 100 µM | > 100 µM | > 100 µM | > 100 µM | – | 68.5 µM | > 100 µM
8 | Nc1nc(Cl)cc(NCC2(O)CC(CO)C2)n1 (configuration not stated) | > 100 µM | – | > 100 µM | > 100 µM | > 100 µM | > 100 µM | > 100 µM | > 100 µM | > 100 µM | > 100 µM
9 | CC(C)(C)OC(=O)CN1CCNCCNCC1 | > 100 µM | > 100 µM | > 100 µM | > 100 µM | > 100 µM | > 100 µM | > 100 µM | > 100 µM | > 100 µM | > 100 µM
10 | C=C(C)[C@@]1(O)O[C@H]2C[C@@]3(C)OC(=CC3=O)/C(C)=C\[C@@H]3OC(=O)[C@@]1(C)[C@H]32 | 24.1 µM | 37.5 µM | 15.6 µM | > 100 µM | 78.4 µM | 66.9 µM | 56 µM | > 100 µM | > 64.4 µM | 33.6 µM
11 | CN1C/C(=C\c2cccs2)C2=NC(=S)NC(c3cccs3)C2C1 (configuration not stated) | 53.5 µM | > 100 µM | > 100 µM | > 100 µM | > 100 µM | > 100 µM | – | > 100 µM | 54.2 µM | > 100 µM
12 | Clc1ccc(-c2ccc(-c3nnc(CCc4nnc(-c5ccc(-c6ccc(Cl)cc6)o5)o4)o3)o2)cc1 | 16.9 µM | > 100 µM | > 100 µM | > 100 µM | > 100 µM | > 100 µM | > 100 µM | > 100 µM | 5.5 µM | > 100 µM
13 | C=C(C)C(=O)CC[C@@H](C)[C@H]1[C@@H](OC2OC(CO)C(O)C(O)C2O)C[C@@]2(C)[C@@H]3C[C@H](O)C4C(C)(C)[C@@H](OC5OC(CO)C(O)C(O)C5O)CC[C@@]45C[C@@]35CC[C@]12C (some centres not stated) | > 100 µM | > 100 µM | > 100 µM | > 100 µM | > 100 µM | > 100 µM | > 100 µM | > 100 µM | > 100 µM | > 100 µM
14 | CC1=NN(C(=O)CSc2nnc(SCC(=O)N3N=C(C)CC3(O)c3ccccc3)s2)C(O)(c2ccccc2)C1 (configuration not stated) | > 100 µM | 36.1 µM | > 100 µM | > 100 µM | > 100 µM | > 100 µM | – | > 100 µM | > 100 µM | > 100 µM
15 | C=C(C)[C@@H]1CC[C@]2(C(=O)O)CC[C@]3(C)[C@H](CC[C@@H]4[C@@]5(C)CC(=O)C(C)(C)[C@@H]5CC[C@]43C)[C@@H]12 | 2.86 µM | > 25 µM | 19.7 µM | > 25 µM | 19.7 µM | > 25 µM | 14.7 µM | > 25 µM | 12.3 µM | > 25 µM
16 | O=c1cc(CNC2CCCC2)[nH]c(=O)[nH]1 | > 100 µM | > 100 µM | > 100 µM | > 100 µM | > 100 µM | > 100 µM | > 100 µM | > 100 µM | > 100 µM | > 100 µM
17 | O=C1C(N2CCCC2)=CC(=O)c2c(O)c(N3CCCC3)c(Cl)c(O)c21 | > 10 µM | > 10 µM | > 10 µM | – | > 10 µM | > 10 µM | > 10 µM | > 10 µM | > 10 µM | > 10 µM
18 | OCC1OC(c2scc3c(=S)nc[nH]c23)C(O)C1O (configuration not stated) | > 100 µM | 60.3 µM | 82.4 µM | 39.6 µM | > 84.9 µM | > 92.8 µM | 57.6 µM | > 100 µM | > 100 µM | > 100 µM
19 | O=c1[nH]c(=O)n(C2CC(O)C(CO)O2)cc1I (configuration not stated) | > 100 µM | > 100 µM | > 100 µM | > 100 µM | > 100 µM | > 100 µM | > 100 µM | > 100 µM | > 100 µM | > 100 µM
20 | c1ccc(C2=NC3(CCCCC3)N(c3nc4ccccc4s3)N2)nc1 | 87.2 µM | 59.2 µM | > 100 µM | > 100 µM | 46.9 µM | > 100 µM | > 100 µM | > 100 µM | 26.8 µM | 49 µM
21 | Clc1ccc2c(SCC3CO3)c3ccccc3nc2c1 (configuration not stated) | 6.98 µM | 3.34 µM | 5.64 µM | > 100 µM | 6.86 µM | 42.1 µM | 7.11 µM | 15.3 µM | 4.56 µM | –
22 | O=S(=O)(Oc1ccc2oc3ccccc3c2c1-c1c(OS(=O)(=O)C(F)(F)F)ccc2oc3ccccc3c12)C(F)(F)F | > 100 µM | > 100 µM | > 100 µM | > 100 µM | > 100 µM | > 100 µM | > 100 µM | > 100 µM | > 100 µM | > 100 µM
23 | O=C(Cc1ccccc1)NCCc1ccc(O)c(O)c1 | 24.3 µM | > 100 µM | > 100 µM | > 100 µM | > 100 µM | > 100 µM | > 100 µM | > 100 µM | 73.3 µM | > 100 µM
24 | O=C1c2c(F)c(F)c(F)c(F)c2SC2=NCCN12 | > 21.6 µM | 14.1 µM | 10.1 µM | 24.5 µM | 27.2 µM | 32.4 µM | 30 µM | 29 µM | 4.45 µM | 22.9 µM
25 | CCOc1cc2c(cc1O)/C(=N\N)C[C@@H]1[C@@H]2CC[C@]2(C)[C@@H](O)CC[C@@H]12 | > 100 µM | > 41.7 µM | 5.58 µM | > 42.9 µM | > 80.1 µM | 6.15 µM | 38 µM | > 100 µM | > 100 µM | > 48.9 µM
26 | CCCCNC1CCC2(SCCS2)c2[nH]c3ccccc3c21 (configuration not stated) | > 59.7 µM | > 65.1 µM | 23 µM | 66.3 µM | > 67.3 µM | > 100 µM | 31.6 µM | > 100 µM | 39.6 µM | 97.3 µM
27 | C=CCC1(O)c2ccccc2C(=O)c2c(O)ccc(O)c21 (configuration not stated) | 56.7 µM | 27.5 µM | 8.11 µM | 53.7 µM | 35.5 µM | > 51.9 µM | > 33.7 µM | 68.6 µM | > 69.8 µM | 24.3 µM
28 | O=C(O)[C@H]1[C@@H](C2CCCCC2)O[C@@H](C2CCCCC2)O[C@H]1C(F)(F)F | 47.7 µM | 39.4 µM | > 100 µM | 45.5 µM | 32.1 µM | 39.5 µM | > 100 µM | 81.3 µM | 46.9 µM | 34.2 µM
